Like-named read-outs stand apart in the source and are kept apart here.
What was measured:
[1] = molecular target: T1, AEA-DA lipid probe targets in Neuro2a cells (Mus musculus, UniProt P61759)
T1 sequence (P61759 1-196): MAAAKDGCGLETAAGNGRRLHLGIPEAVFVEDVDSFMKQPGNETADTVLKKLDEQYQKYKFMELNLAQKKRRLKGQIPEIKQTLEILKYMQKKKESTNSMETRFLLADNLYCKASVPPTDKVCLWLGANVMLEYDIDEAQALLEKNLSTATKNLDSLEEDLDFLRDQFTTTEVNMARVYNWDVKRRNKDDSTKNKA

[2] = molecular target: T2, AEA-DA lipid probe targets in Neuro2a cells (Mus musculus, UniProt O89023)
T2 sequence (O89023 195-562): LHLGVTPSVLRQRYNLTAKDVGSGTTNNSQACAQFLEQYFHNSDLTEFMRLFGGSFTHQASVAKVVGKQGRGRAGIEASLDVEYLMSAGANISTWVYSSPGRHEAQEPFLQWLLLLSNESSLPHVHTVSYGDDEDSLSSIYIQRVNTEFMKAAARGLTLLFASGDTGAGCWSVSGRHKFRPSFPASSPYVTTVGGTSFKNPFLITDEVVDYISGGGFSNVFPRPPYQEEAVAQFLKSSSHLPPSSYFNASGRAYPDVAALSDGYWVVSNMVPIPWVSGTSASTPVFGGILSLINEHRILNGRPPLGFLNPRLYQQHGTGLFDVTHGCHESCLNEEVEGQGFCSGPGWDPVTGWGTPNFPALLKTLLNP

[3] = molecular target: T3, AEA-DA lipid probe targets in Neuro2a cells (Mus musculus, UniProt Q8BTX9)
T3 sequence (Q8BTX9 1-330): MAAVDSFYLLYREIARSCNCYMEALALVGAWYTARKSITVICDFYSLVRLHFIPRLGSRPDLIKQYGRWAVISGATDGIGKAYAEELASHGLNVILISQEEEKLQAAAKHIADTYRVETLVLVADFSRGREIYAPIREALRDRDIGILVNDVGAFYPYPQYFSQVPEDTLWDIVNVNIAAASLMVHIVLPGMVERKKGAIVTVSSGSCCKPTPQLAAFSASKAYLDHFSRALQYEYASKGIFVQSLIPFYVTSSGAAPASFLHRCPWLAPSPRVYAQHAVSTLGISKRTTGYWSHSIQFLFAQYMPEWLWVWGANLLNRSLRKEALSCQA

[4] = molecular target: T4, AEA-DA lipid probe targets in Neuro2a cells (Mus musculus, UniProt P46638)
T4 sequence (P46638 1-218): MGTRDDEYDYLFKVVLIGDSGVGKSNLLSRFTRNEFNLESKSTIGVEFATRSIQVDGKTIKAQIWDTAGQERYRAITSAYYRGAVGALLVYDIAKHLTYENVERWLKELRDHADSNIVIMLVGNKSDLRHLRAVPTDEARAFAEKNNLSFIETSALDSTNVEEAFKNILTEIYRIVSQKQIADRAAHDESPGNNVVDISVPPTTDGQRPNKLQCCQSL

[5] = molecular target: T5, AEA-DA lipid probe targets in Neuro2a cells (Mus musculus, UniProt Q922Q8)
T5 sequence (Q922Q8 1-307): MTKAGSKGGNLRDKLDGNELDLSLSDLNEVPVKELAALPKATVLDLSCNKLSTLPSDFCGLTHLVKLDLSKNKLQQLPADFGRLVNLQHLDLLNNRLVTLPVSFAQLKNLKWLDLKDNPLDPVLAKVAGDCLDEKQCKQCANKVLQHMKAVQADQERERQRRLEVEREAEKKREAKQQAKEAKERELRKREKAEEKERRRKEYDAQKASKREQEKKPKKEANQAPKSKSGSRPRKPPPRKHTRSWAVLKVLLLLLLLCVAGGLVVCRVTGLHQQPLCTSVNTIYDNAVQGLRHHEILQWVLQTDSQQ

[6] = molecular target: T6, AEA-DA lipid probe targets in Neuro2a cells (Mus musculus, UniProt Q9D1D4)
T6 sequence (Q9D1D4 32-219): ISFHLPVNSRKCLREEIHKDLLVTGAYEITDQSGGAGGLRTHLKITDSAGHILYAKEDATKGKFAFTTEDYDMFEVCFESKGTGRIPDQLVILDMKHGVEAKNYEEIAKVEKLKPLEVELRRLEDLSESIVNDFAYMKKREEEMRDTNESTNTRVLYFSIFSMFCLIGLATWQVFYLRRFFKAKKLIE

Which results are given for CCCCC/C=C\C/C=C\C/C=C\C/C=C\CCCC(=O)NCCO [AEA, anandamide, reference compound]?
SILAC ratio, Vbp1 ([1]; competitor 200 μM): 1.1; SILAC ratio Tpp1 ([2]; competitor 200 μM): 1.5; SILAC ratio, Hsdl1 ([3]; competitor 200 μM): 2.5; SILAC ratio, Rab11b ([4]; competitor 200 μM): 1.6; SILAC ratio Lrrc59 ([5]; competitor 200 μM): 1.6; SILAC ratio, Tmed10 ([6]; competitor 200 μM): 1.5

What does the source list for O=C(/C=C/c1cccnc1)NCCCCC1CCN(C(=O)c2ccccc2)CC1 [FK-866, reference compound]?
SILAC ratio, Vbp1 ([1]; competitor 25 μM): 1.1; SILAC ratio Tpp1 ([2]; competitor 25 μM): 1.0; SILAC ratio, Hsdl1 ([3]; competitor 25 μM): 1.0; SILAC ratio, Rab11b ([4]; competitor 25 μM): 1.2; SILAC ratio Lrrc59 ([5]; competitor 25 μM): 1.2; SILAC ratio, Tmed10 ([6]; competitor 25 μM): 1.1

CN1CCN(C(=O)c2c(-c3ccccc3)c3cc([N+](=O)[O-])ccc3n2C)CC1 [KML110, (1-Methyl-5-nitro-3-phenyl-1H-indol-2-yl)(4-methylpiperazin-1-yl)methanone] was tested. Which “SILAC ratio, Vbp1” value ([1]; competitor 25 μM) did it give?
The value was 1.6.

And the “SILAC ratio Tpp1” value ([2]; competitor 25 μM)?
Its value is 1.5.

And the “SILAC ratio, Hsdl1” value ([3]; competitor 25 μM)?
Its value is 1.4.

What about the “SILAC ratio, Rab11b” value ([4]; competitor 25 μM) of the same compound?
Its value is 1.5.

What about the “SILAC ratio Lrrc59” value ([5]; competitor 25 μM) of the same compound?
The value was 1.3.

And the “SILAC ratio, Tmed10” value ([6]; competitor 25 μM)?
Its value is 1.2.

CN1CCN(C(=O)c2[nH]c3ccc([N+](=O)[O-])cc3c2-c2ccccc2)CC1 [MJN228, (4-Methylpiperazin-1-yl)(5-nitro-3-phenyl-1H-indol-2-yl)methanone] was tested. Which “SILAC ratio, Vbp1” value ([1]; competitor 25 μM) did it give?
Its value is 1.5.

And the “SILAC ratio, Vbp1” value ([1]; competitor 50 μM)?
The value was 0.9.

What about the “SILAC ratio, Vbp1” value ([1]; competitor 100 μM) of the same compound?
Its value is 2.0.

What about the “SILAC ratio Tpp1” value ([2]; competitor 10 μM) of the same compound?
The value was 1.4.

What about the “SILAC ratio Tpp1” value ([2]; competitor 25 μM) of the same compound?
The value was 1.4.

And the “SILAC ratio Tpp1” value ([2]; competitor 50 μM)?
Its value is 1.8.

What about the “SILAC ratio Tpp1” value ([2]; competitor 100 μM) of the same compound?
The value was 2.0.

What about the “SILAC ratio, Hsdl1” value ([3]; competitor 10 μM) of the same compound?
Its value is 1.1.

And the “SILAC ratio, Hsdl1” value ([3]; competitor 25 μM)?
The value was 1.2.

And the “SILAC ratio, Hsdl1” value ([3]; competitor 50 μM)?
The value was 1.0.

And the “SILAC ratio, Hsdl1” value ([3]; competitor 100 μM)?
The value was 1.5.

And the “SILAC ratio, Rab11b” value ([4]; competitor 10 μM)?
Its value is 1.2.

And the “SILAC ratio, Rab11b” value ([4]; competitor 25 μM)?
The value was 1.6.

What about the “SILAC ratio, Rab11b” value ([4]; competitor 50 μM) of the same compound?
Its value is 1.8.

And the “SILAC ratio, Rab11b” value ([4]; competitor 100 μM)?
Its value is 2.4.

What about the “SILAC ratio Lrrc59” value ([5]; competitor 10 μM) of the same compound?
Its value is 1.3.

And the “SILAC ratio Lrrc59” value ([5]; competitor 25 μM)?
The value was 1.5.

And the “SILAC ratio Lrrc59” value ([5]; competitor 50 μM)?
Its value is 1.5.

And the “SILAC ratio Lrrc59” value ([5]; competitor 100 μM)?
The value was 2.0.

And the “SILAC ratio, Tmed10” value ([6]; competitor 10 μM)?
The value was 1.1.

And the “SILAC ratio, Tmed10” value ([6]; competitor 25 μM)?
Its value is 1.4.

What about the “SILAC ratio, Tmed10” value ([6]; competitor 50 μM) of the same compound?
The value was 1.5.

What about the “SILAC ratio, Tmed10” value ([6]; competitor 100 μM) of the same compound?
Its value is 1.6.

C=CCN(C)CCCCCCOc1ccc(C(=O)c2ccc(Br)cc2)c(F)c1 [Ro 48-8071, reference compound] was tested. Which “SILAC ratio, Vbp1” value ([1]; competitor 25 μM) did it give?
Its value is 0.9.

What about the “SILAC ratio Tpp1” value ([2]; competitor 25 μM) of the same compound?
The value was 0.8.

And the “SILAC ratio, Hsdl1” value ([3]; competitor 25 μM)?
Its value is 0.9.

What about the “SILAC ratio, Rab11b” value ([4]; competitor 25 μM) of the same compound?
The value was 1.3.

What about the “SILAC ratio Lrrc59” value ([5]; competitor 25 μM) of the same compound?
The value was 1.2.

What about the “SILAC ratio, Tmed10” value ([6]; competitor 25 μM) of the same compound?
The value was 1.0.
